Values of other authors in patent US20170232011A1, “PHARMACEUTICAL COMPOSITION AND METHOD FOR THE TREATMENT OF URINARY TRACT INFECTIONS” (priority 2016, published 2017).

What was measured:
[1] = tested on: Staphylococcus saprophyticus
[2] = tested on: Coagulase negative staphylococci
[3] = 100 mg oral dose

Row | oral dose excreted directly into the urine chemically unchanged [%] | Compound | activity against E. coli (E. coli) | activity against Staphylococcus saprophyticus [1] | activity against Coagulase negative staphylococci [2] | activity against Enterococcus faecalis (Enterococcus faecalis) | activity against Staphylococcus aureus (Staphylococcus aureus) | activity against Streptococcus agalactiae (Streptococcus agalactiae) | activity against Citrobacter species (Citrobacter species) | activity against Klebsiella species (Klebsiella species) | plasma levels ([3]; plasma) | level in the urine ([3]; urine) [µg/mL]
1 |  | O=C1CN(N=Cc2ccc([N+](=O)[O-])o2)C(=O)N1 [Nitrofurantoin, 1-[[[5-nitro-2-furanyl]methylene]amino]-2,4-imidazolidinedione] | good activity | good activity | good activity | good activity | good activity | good activity | good activity | good activity | less than 1 μg/ml | 200
2 | ~65 | Nc1ccc(N=Nc2ccccc2)c(N)n1 [Phenazopyridine, 3-phenyldiazenylpyridine-2,6-diamine] |  |  |  |  |  |  |  |  |  | 
